The values below come from patent publication EP1862549A2, “Target of RNAIII activating protein (TRAP)” (Balaban, Naomi, priority 1998, dated 2007).

In one experiment the test system is TRAP. To be noted: wild type early exponential S. aureus cells incubated in PFB with 32P; PBS as control.
The next experiment has as its system S. aureus. To be noted: animals treated with RIP; cited from earlier work.

Experimental for TRAP: Wild type early exponential S. aureus cells were incubated for 1 hr in phosphate free buffer (PFB) together with ^32P, with RAP (in PBS) or with PBS only as a control. […] Cells were collected, applied to SDS PAGE, and the gel autoradiographed. The autoradiogram was scanned and the density of the bands determined.
Wild type early exponential S. aureus cells were incubated in PFB with ^32P with either PBS alone, RIP, RAP, or a combination of RIP and RAP. […] The cells were collected, applied to SDS PAGE, the gel autoradiographed, and the relative amounts of TRAP phosphorylation and RNAIII transcription levels determined (Balaban et al. Proc. Natl. Acad. Sci. U.S.A. 92:1619-1623 (1995)). […] The relative levels of TRAP phosphorylation (Fig. 14) and RNAIII transcription (Fig. 15) in the presence of PBS alone (control), RIP, RAP, or RIP and RAP were also determined.

For the substance YSPXTNF (SEQ ID NO:3) [RIP], in the experiment with TRAP, the TRAP phosphorylation result is listed as “inhibited”. Besides, the “protection from an S. aureus infection” value in the experiment with S. aureus is reported as “protected”.
